Data published in patent publication US6967196B1, “Sulfonamide compounds and uses thereof” (Bristol-Myers Squibb Company, priority 1999, dated 2005).
Counter-ions that a name gives are not always drawn. Like-named read-outs stand apart in the source and are kept apart here.

Tested on: amyloid β production in transfected H4 (human neuroglioma) cells stably expressing APP constructs
Experiment: In vitro cell-based assay of inhibitors of amyloid β production (ELISA)
Conditions: transfected H4 cells stably expressing APP, approximately 16 hours incubation, amyloid β in medium by ELISA, Table B, read-out: ACTIVITY (IC50, inhibition of amyloid β production)
Outline: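 Transfected H4 cells stably expressing wild-type or variant APP were exposed to compounds (initial screen 10-100 μM) for about 16 h. Secreted Aβ in the medium was quantified by sandwich ELISA (C-terminal-specific monoclonal capture, N-terminal-specific polyclonal detection) against an Aβ standard curve; dose-response runs followed for actives.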

O=S(=O)(c1ccc(Cl)cc1)N(Cc1ccccc1OCCCN1CCC(O)CC1)c1ccccc1 [Example 298, 4-Chloro-N-{2-[3-(4-hydroxy-1-piperidinyl)propoxy]benzyl}-N-phenylbenzenesulfonamide Hydrochloride]
IC50: 50 to 100 nM

CN1C2CCC1[C@@H](COc1ccccc1CN(c1ccccc1)S(=O)(=O)c1ccc(Cl)cc1)C2 (stereo partly drawn) [Example 300, 4-Chloro-N-(2-{[(2S)-7-methyl-7-azabicyclo[2.2.1]hept-2-yl]methoxy]benzyl)-N-phenylbenzenesulfonamide Hydrochloride]
IC50: 50 to 100 nM

O=S(=O)(c1ccc(Cl)cc1)N(Cc1ccccc1OCCCn1ccnc1)c1ccccc1 [Example 302, 4-Chloro-N-{2-[3-(1H-imidazol-1-yl)propoxy]benzyl}-N-phenylbenzenesulfonamide Hydrochloride]
IC50: 50 to 100 nM

CC1CC(C)CN(CCCOc2ccccc2CN(c2ccccc2)S(=O)(=O)c2ccc(Cl)cc2)C1 (stereo not drawn) [Example 303, 4-Chloro-N-{2-[3-(3,5-dimethyl-1-piperidinyl)propoxy]benzyl}-N-phenylbenzenesulfonamide Hydrochloride]
IC50: 50 to 100 nM

O=S(=O)(c1ccc(Cl)cc1)N(Cc1ccccc1OCCCN1CCCCCC1)c1ccccc1 [Example 305, N-{2-[3-(1-azepanyl)propoxy]benzyl}-4-chloro-N-phenylbenzenesulfonamide Hydrochloride]
IC50: 50 to 100 nM

C[C@@H]1CCC[C@H](C)N1CCCOc1ccccc1CN(c1ccccc1)S(=O)(=O)c1ccc(Cl)cc1 [Example 306, 4-Chloro-N-(2-{3-[(2R,6S)-2,6-dimethylpiperidinyl]propoxy}benzyl)-N-phenylbenzenesulfonamide Hydrochloride]
IC50: 50 to 100 nM

O=C1CCN(CCCOc2ccccc2CN(c2ccccc2)S(=O)(=O)c2ccc(Cl)cc2)CC1 [Example 307, 4-Chloro-N-{2-[3-(4-oxo-1-piperidinyl)propoxy]benzyl}-N-phenylbenzenesulfonamide Hydrochloride]
IC50: 50 to 100 nM

O=S(=O)(c1ccc(Cl)cc1)N(Cc1cc(Cl)ccc1OCCCN1CCC(O)CC1)c1ccccc1 [Example 309, 4-Chloro-N-{5-chloro-2-[3-(4-hydroxy-1-piperidinyl)propoxy]benzyl}-N-phenylbenzenesulfonamide Hydrochloride]
IC50: 50 to 100 nM

O=S(=O)(c1ccc(Cl)cc1)N(Cc1ccccc1OCCCN1CCCC(O)C1)c1ccccc1 (stereo not drawn) [Example 310, 4-Chloro-N-{2-[3-(3-hydroxy-1-piperidinyl)propoxy]benzyl}-N-phenylbenzenesulfonamide Hydrochloride]
IC50: 50 to 100 nM

O=S(=O)(c1ccc(Cl)cc1)N(Cc1ccccc1OCCCN1CCC(CO)CC1)c1ccccc1 [Example 311, 4-Chloro-N-(2-{3-[4-(hydroxymethyl)-1-piperidinyl]propoxy}benzyl)-N-phenylbenzenesulfonamide Hydrochloride]
IC50: 50 to 100 nM

CC1(O)CCN(CCCOc2ccccc2CN(c2ccccc2)S(=O)(=O)c2ccc(Cl)cc2)CC1 [Example 312, 4-Chloro-N-{2-[3-(4-hydroxy-4-methyl-1-piperidinyl)propoxy]benzyl}-N-phenylbenzenesulfonamide Hydrochloride]
IC50: 50 to 100 nM

O=S1(=O)CCN(CCCOc2ccccc2CN(c2ccccc2)S(=O)(=O)c2ccc(Cl)cc2)CC1 [Example 313, 4-Chloro-N-{2-[3-(1,1-dioxido-4-thiomorpholinyl)propoxy]benzyl}-N-phenylbenzenesulfonamide Hydrochloride]
IC50 (Hydrochloride): 50 to 100 nM

CC(c1ccccc1OCCCn1ccnc1)N(c1cc(F)ccc1F)S(=O)(=O)c1ccc(Cl)cc1 (stereo not drawn) [Example 321, 4-Chloro-N-(2,5-difluorophenyl)-N-1-{2-[3-(1H-imidazol-1-yl)propoxy]phenyl}ethyl)benzenesulfonamide Hydrochloride]
IC50: 50 to 100 nM

CC(=O)SCCCOc1ccccc1CN(c1ccccc1)S(=O)(=O)c1ccc(Cl)cc1 [Example 341, S{3-[2-({[(4-chlorophenyl)sulfonyl]anilino}methyl)phenoxy]propyl}ethanethioate]
IC50: 50 to 100 nM

CC(c1ccccc1OCCCNC(=O)c1cccnc1)N(c1cc(F)ccc1F)S(=O)(=O)c1ccc(Cl)cc1 (stereo not drawn) [Example 359, N-{3-[2-(1-{[(4-chlorophenyl)sulfonyl]-2,5-difluoroanilino}ethyl)phenoxy]propyl}nicotinamide]
IC50: 50 to 100 nM

CC(c1ccccc1OCCCN(C)C(=O)c1cccnc1)N(c1cc(F)ccc1F)S(=O)(=O)c1ccc(Cl)cc1 (stereo not drawn) [Example 360, N-{3-[2-(1-{[(4-chlorophenyl)sulfonyl]-2,5-difluoroanilino}ethyl)phenoxy]propyl}-N-methylnicotinamide]
IC50: 50 to 100 nM

C[C@H](c1ccccc1OCCCN(C)C(=O)c1cccnc1)N(c1cc(F)ccc1F)S(=O)(=O)c1ccc(Cl)cc1 [Example 363, N-{3-[2-((1R)-1-{[(4-chlorophenyl)sulfonyl]-2,5-difluoroanilino}ethyl)phenoxy]propyl}-N-methylnicotinamide Hydrochloride]
IC50: 50 to 100 nM

CN(CCCOc1ccccc1CN(c1cc(F)ccc1F)S(=O)(=O)c1ccc(Cl)cc1)C(=O)CCCCCN [Example 366, 6-Amino-N-{3-[2-({[(4-chlorophenyl)sulfonyl]-2,5-difluoroanilino}methyl)phenoxy]propyl]-N-methylhexanamide Hydrochloride]
IC50: 50 to 100 nM

CC(c1ccccc1OCCCC(=O)O)N(c1cc(F)ccc1F)S(=O)(=O)c1ccc(Cl)cc1 (stereo not drawn) [Example 377, 4-[2-(1-{[(4-Chlorophenyl)sulfonyl]-2,5-difluoroanilino}ethyl)phenoxy]butanoic Acid]
IC50: 50 to 100 nM

CNC(=O)CCCOc1ccccc1C(C)N(c1cc(F)ccc1F)S(=O)(=O)c1ccc(Cl)cc1 (stereo not drawn) [Example 378, 4-[2-(1-{[(4-Chlorophenyl)sulfonyl]-2,5-difluoroanilino}ethyl)phenoxy]-N-methylbutanamide]
IC50: 50 to 100 nM

CONC(=O)CCCOc1ccccc1C(C)N(c1cc(F)ccc1F)S(=O)(=O)c1ccc(Cl)cc1 (stereo not drawn) [Example 379, 4-[2-(1-{[(4-Chlorophenyl)sulfonyl]-2,5-difluoroanilino}ethyl)phenoxy]-N-methoxybutanamide]
IC50: 50 to 100 nM

C[C@H](c1ccc(F)cc1COCc1cccnc1)N(c1cc(F)ccc1F)S(=O)(=O)c1ccc(Cl)cc1 [Example 380, 4-chloro-N-(2,5-difluorophenyl)-N-((1R)-1-{4-fluoro-2-[(3-pyridinylmethoxy)methyl]phenyl}ethyl)benzenesulfonamide]
IC50 (Homo sapiens, 16 h): 50 to 100 nM

CNC(=O)COc1ccccc1C(C)N(c1cc(F)ccc1F)S(=O)(=O)c1ccc(Cl)cc1 (stereo not drawn) [Example 381, [2-(1-{[(4-Chlorophenyl)sulfonyl]-2,5-difluoroanilino}ethyl)phenoxy]-N-methylacetamide]
IC50: 50 to 100 nM

CONC(=O)COc1ccccc1C(C)N(c1cc(F)ccc1F)S(=O)(=O)c1ccc(Cl)cc1 (stereo not drawn) [Example 382, [2-(1-{[(4-Chlorophenyl)sulfonyl]-2,5-difluoroanilino}ethyl)phenoxy]-N-methoxyacetamide]
IC50: 50 to 100 nM

CC(c1ccccc1OCCCCN(C)C(=O)CSc1ccccc1)N(c1cc(F)ccc1F)S(=O)(=O)c1ccc(Cl)cc1 (stereo not drawn) [Example 384, N-{4-[2-(1-{[(4-chlorophenyl)sulfonyl]-2,5-difluoroanilino}ethyl)phenoxy]butyl}-N-methyl-2-(phenylsulfanyl)acetamide]
IC50 (Homo sapiens, 16 h): 50 to 100 nM

CC(NC(=O)OCCc1cc(F)ccc1[C@@H](C)N(c1cc(F)ccc1F)S(=O)(=O)c1ccc(Cl)cc1)c1ccccc1 (stereo partly drawn) [Example 385, 2-[2-((1R)-1-{[(4-chlorophenyl)sulfonyl]-2,5-difluoroanilino}ethyl)-5-fluorophenyl]ethyl 1 phenylethylcarbamate]
IC50 (Homo sapiens, 16 h): 50 to 100 nM

CC(c1ccccc1OCCCN(C)C(=O)C12CCC(C)(C(=O)O1)C2(C)C)N(c1cc(F)ccc1F)S(=O)(=O)c1ccc(Cl)cc1 (stereo not drawn) [Example 387, N-{3-[2-(1-{[(4-chlorophenyl)sulfonyl]-2,5-difluoroanilino}ethyl)phenoxy]propyl}-N,4,7,7-tetramethyl-3-oxo-2-oxabicyclo[2.2.1]heptane-1-carboxamide]
IC50 (Homo sapiens, 16 h): 50 to 100 nM

C[C@H](c1ccccc1CCC(=O)NCc1ccc2c(c1)OCO2)N(c1cc(F)ccc1F)S(=O)(=O)c1ccc(Cl)cc1 [Example 388, N-(1,3-benzodioxol-5-ylmethyl)-3-[2-((1R)-1-{[(4-chlorophenyl)sulfonyl]-2,5-difluoroanilino}ethyl)phenyl]propanamide]
IC50 (Homo sapiens, 16 h): 50 to 100 nM

C[C@H](c1ccccc1CCOC(=O)NCc1ccccc1)N(c1cc(F)ccc1F)S(=O)(=O)c1ccc(Cl)cc1 [Example 389, 2-[2-((1R)-1-{[(4-chlorophenyl)sulfonyl]-2,5-difluoroanilino}ethyl)phenyl]ethyl benzylcarbamate]
IC50 (Homo sapiens, 16 h): 50 to 100 nM

C[C@H](c1ccccc1Cn1ncnn1)N(c1cc(F)ccc1F)S(=O)(=O)c1ccc(Cl)cc1 [Example 396]
IC50 (Homo sapiens, 16 h): 50 to 100 nM

CC(c1ccccc1OCCN(C)C(=O)N(C)C)N(c1cc(F)ccc1F)S(=O)(=O)c1ccc(Cl)cc1 (stereo not drawn) [Example 397, 4-chloro-N-(2,5-difluorophenyl)-N-[1-(2-{2-[[(dimethylamino)carbonyl](methyl)amino]ethoxy}phenyl)ethyl]benzenesulfonamide]
IC50 (Homo sapiens, 16 h): 50 to 100 nM

CC(C)CNC(=O)OCc1cc(F)ccc1[C@@H](C)N(c1cc(F)ccc1F)S(=O)(=O)c1ccc(Cl)cc1 [Example 398, 2-((1R)-1-{[(4-chlorophenyl)sulfonyl]-2,5-difluoroanilino}ethyl)-5-fluorobenzyl isobutylcarbamate]
IC50 (Homo sapiens, 16 h): 50 to 100 nM

O=C1CCC(=O)N1CCCOc1ccccc1CN(c1cc(F)ccc1F)S(=O)(=O)c1ccc(Cl)cc1 [Example 399, 4-chloro-N-(2,5-difluorophenyl)-N-{2-[3-(2,5-dioxo-1-pyrrolidinyl)propoxy]benzyl}benzenesulfonamide]
IC50 (Homo sapiens, 16 h): 50 to 100 nM
